Measured values reported in patent EP2014287A1, “Use of cinnamic acid derivatives as modulators of an EP2 receptor” (Bayer Schering Pharma Aktiengesellschaft, priority 2007, dated 2009).

What was measured:
[1] = target: T1, humanen Prostaglandin E2 (Subtyp EP2) Rezeptor (Homo sapiens, UniProt P43116); assay: cellular agonism test (HTRF cAMP detection, without PGE2); assay type: cell-based
T1 construct: host or cells: cells in a culture plate

[2] = target: T1, humanen Prostaglandin E2 (Subtyp EP2) Rezeptor; assay: cAMP antagonism test (HTRF cAMP detection, in presence of PGE2); assay type: cell-based; conditions: cAMP Antagonismustest, read-out: Antagonismus [IC50
Excerpt: Die Bindung von PGE2 an den EP2-Subtyp des humanen PGE2-Rezeptors induziert die Aktivierung membranständiger Adenylatzyklasen und führt zur Bildung von cAMP. In Gegenwart des Phosphodiesteraseinhibitors IBMX wird das durch diese Stimulation akkumulierte und mittels Zell-Lyse freigesetzte cAMP in einem kompetitiven Nachweisverfahren eingesetzt. In diesem Test konkurriert das cAMP im Lysat mit cAMP-XL665 um die Bindung eines Eu-Kryptat markierten Anti-cAMP Antikörpers. Dabei entsteht in Abwesenheit von zellulärem cAMP ein maximales Signal, welches auf der Kopplung dieses Antikörpers an das cAMP-XL665 Molekül beruht. Dadurch entsteht nach Anregung bei 337 nm ein auf FRET (fluorescence resonance energy transfer) basierendes, lang anhaltendes Emissionssignal bei 665 nm (und bei […]). Beide Signale werden in einem geeigneten Messgerät zeitlich versetzt, d.h. nach Abklingen der Hintergrundsfluoreszenz gemessen. Jegliche Erhöhung des durch Prostglandin-E2-Gabe bedingten niedrigen FRET-Signals (gemessen als Well-Ratio-Veränderung = Emission665nm/Emission620nm * 10000) zeigt die Wirkung von Antagonisten.
Die in einer Testplatte und 30 % DMSO vorgelegten Substanzlösungen (0.75 µl) werden in 16 µl einer KRSB+IBMX-Stimulationslösung gelöst (1 X Krebs-Ringer Bicarbonate Buffer; Sigma-Aldrich # K-4002; inklusive 750 µM 3-Isobutyl-1-methylxanthine Sigma-Aldrich # I-7018), anschließend werden 15 µl davon in eine medienfreie Zellkulturplatte überführt, die kurz zuvor mit KRSB gewaschen worden war. Nach einer 30-minütigen Vorinkubation bei Raumtemperatur (RT) werden 5 µl einer 4xPGE2 Lösung (11 nM) zugegeben und in Gegenwart des Agonisten für weitere 60 min bei RT inkubiert (Volumen: - 20 µl), bevor die Reaktion anschließend durch Zugabe von 5 µl Lysispuffer gestoppt und für weitere 20 min bei RT inkubiert wird (Volumen: - 25 µl). Das Zell-Lysat wird anschließend in eine Messplatte überführt und entsprechend den Herstellerangaben (cyclic AMP kit Cisbio International # 62AMPPEC) gemessen.

Kumulus-Eizell Komplexe = assay: cumulus expansion test in vitro; assay type: cell-based, Mäusen; conditions: in competition with PGE2
Excerpt: In immaturen weiblichen Mäusen (Stamm : CD1 (ICR) von Charles River) wird in einem Alter von 14-18 Tagen die Follikulogenese durch eine einmalige Gabe (intraperitoneal) von 10 I.E. PMSG (Pregnant Mare Serum Gonadotropine; Sigma G-4877, Lot 68H0909) induziert. 47 - 50 Stunden nach der Injektion werden die Ovarien entnommen und die Kumulus-Eizell Komplexe entnommen. Der Kumulus Komplex ist in diesem Stadium noch nicht expandiert. Die Kumulus-Eizell Komplexe werden nun für 20 - 24 Stunden mit Prostaglandin E2 (PGE2) (0,3 µM), Vehikel Kontrolle (Ethanol) oder Testsubstanzen inkubiert. Medium: alpha- MEM Medium mit 0,1 mM IBMX, Pyruvate (0,23 mM) Glutamine (2 mM), Pen/Strep 100 IU/ml Pen. und 100 µg/ml Strep.) und HSA (8 mg/ml)). Danach wird die Kumulus Expansion durch die Einteilung in vier Stadien (nach Vanderhyden et al. Dev Biol. 1990 Aug;140(2):307-317) festgestellt. Tabelle 1: Beispiel für die biologische Wirksamkeit der erfindungsgemäßen Verbindungen (gemessen mittels cAMP Antagonismustest): […]

T1 sequence (P43116 whole entry): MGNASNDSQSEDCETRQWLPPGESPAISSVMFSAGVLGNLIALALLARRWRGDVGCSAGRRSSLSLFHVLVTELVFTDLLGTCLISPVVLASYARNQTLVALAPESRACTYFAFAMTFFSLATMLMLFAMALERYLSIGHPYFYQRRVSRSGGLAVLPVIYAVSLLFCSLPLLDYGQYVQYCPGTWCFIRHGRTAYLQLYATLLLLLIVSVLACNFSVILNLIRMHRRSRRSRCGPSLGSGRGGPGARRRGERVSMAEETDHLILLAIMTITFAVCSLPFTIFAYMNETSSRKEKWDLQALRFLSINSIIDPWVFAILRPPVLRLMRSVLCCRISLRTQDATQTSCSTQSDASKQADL

SMILES	Wirkung im zellulären Agonismustest [1]	IC50 [2]	Unterdrückung der Kumulus Expansion (Kumulus-Eizell Komplexe; 10 µM)	Unterdrückung der Kumulus Expansion (Kumulus-Eizell Komplexe; 100 - 200 µM)
Cc1[nH]c2c(F)ccc(C)c2c1CCNC(=O)CCc1ccc(F)cc1 [Beispiel 9, N-[2-(7-Fluoro-2,4-dimethyl-1 H-indol-3-yl)-ethyl]-3-(4-fluorophenyl)-propionamid]	keine Inhibition	1500 nM	20%	–
Cc1[nH]c2c(F)ccc(C)c2c1CCNC(=O)/C=C/c1cc(F)cc(F)c1 [Beispiel 20, (E)-3-(3,5-Difluorphenyl)-N-[2-(7-fluor-2,4-dimethyl-1 H-indol-3-yl)-ethyl]-acrylamid]	–	830 nM	–	–
CC(C)Oc1ccc2c(=O)c3cc(C(=O)O)ccc3oc2c1 [AH 6809, reference compound]	–	–	–	ca. 30%
CCOc1cccc(CCC(=O)NCCc2c(C)[nH]c3c(F)ccc(C)c23)c1 [Beispiel 7, 3-(3-Ethoxyphenyl)-N-[2-(7-fluoro-2,4-dimethyl-1 H-indol-3-yl)-ethyl]-propionamid]	–	1200 nM	–	–
